Columns and labels:
Assay type in all cases: biochemical
cathepsin K = target: T1, cathepsin K (Homo sapiens, UniProt P43235); assay: Inhibitory activity assay against cathepsin K (enzyme assay); details: Z-Phe-Arg-AMC 10 μM, enzyme 1 nM, pH 5.5, 30 minutes
T1 sequence (P43235 115-329): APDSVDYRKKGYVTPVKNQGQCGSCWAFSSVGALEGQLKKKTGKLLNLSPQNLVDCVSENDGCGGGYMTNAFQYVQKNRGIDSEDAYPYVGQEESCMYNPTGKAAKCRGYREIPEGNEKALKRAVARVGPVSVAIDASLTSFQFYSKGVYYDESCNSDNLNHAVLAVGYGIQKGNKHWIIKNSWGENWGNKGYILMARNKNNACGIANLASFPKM
Method in brief: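 Fluorogenic assay with 1 nM cathepsin K and 10 μM Z-Phe-Arg-AMC in pH 5.5 buffer (50 mM MES, 2 mM DTT, 2.5 mM EDTA, 0.01% Triton X-100, 10% DMSO). Ten compound concentrations, 10.0 to 0.000508 μM; 30 min reaction, ex 355/em 460 nm; IC50 by 4-parameter logistic fit.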

cathepsin B = cathepsin B (Homo sapiens, UniProt P07858); assay: Inhibitory activity assay against cathepsin B (enzyme assay); details: Z-Arg-Arg-AMC 40 μM, enzyme 1 nM, pH 6.0, 90 minutes
Method in brief: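 1 nM enzyme with 40 μM Z-Arg-Arg-AMC and compound (10.0 μM down to 0.000508 μM, 10 points) in pH 6.0 buffer of 50 mM MES, 5 mM DTT, 2.5 mM EDTA, 0.005% Polysorbate 20, 10% DMSO. Fluorescence (340/460 nm) read after 90 min; IC50 by 4-parameter logistic fit.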

cathepsin L = cathepsin L (Homo sapiens, UniProt P07711); assay: Inhibitory activity assay against cathepsin L (enzyme assay); details: Z-Phe-Arg-AMC 2 μM, enzyme 3 nM, pH 5.5, 30 minutes
Method in brief: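 Enzyme at 3 nM with 2 μM Z-Phe-Arg-AMC in 50 mM MES pH 5.5, 2.5 mM DTT, 2.5 mM EDTA, 0.005% Polysorbate 20, 10% DMSO; 30 min reaction, AMC fluorescence 340/460 nm. Ten-point series 10.0 μM to 0.000508 μM; IC50 by 4-parameter logistic fit.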

cathepsin S = cathepsin S (Homo sapiens, UniProt P25774); assay: Inhibitory activity assay against cathepsin S (enzyme assay); details: Z-Phe-Arg-AMC 70 μM, enzyme 3 nM, pH 6.5, 45 minutes
Method in brief: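 Cathepsin S (3 nM final) with Z-Phe-Arg-AMC substrate (70 μM final) in pH 6.5 buffer of 50 mM MES, 2.5 mM DTT, 1.0 mM EDTA, 0.001% BSA, 10% DMSO; compound 10.0 μM down to 0.000508 μM, 10 points. Fluorescence (ex 340/em 460 nm) after 45 min; IC50 by 4-parameter logistic fit.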

Chain of cathepsin S (P25774 115-331, species assumed): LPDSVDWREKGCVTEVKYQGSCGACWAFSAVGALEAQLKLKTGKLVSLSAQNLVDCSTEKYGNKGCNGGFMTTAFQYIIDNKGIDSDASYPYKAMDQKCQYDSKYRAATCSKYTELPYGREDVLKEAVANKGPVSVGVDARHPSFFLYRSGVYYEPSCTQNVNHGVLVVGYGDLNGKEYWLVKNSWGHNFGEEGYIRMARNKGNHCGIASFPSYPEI
Chain of cathepsin L (P07711 114-333, species assumed): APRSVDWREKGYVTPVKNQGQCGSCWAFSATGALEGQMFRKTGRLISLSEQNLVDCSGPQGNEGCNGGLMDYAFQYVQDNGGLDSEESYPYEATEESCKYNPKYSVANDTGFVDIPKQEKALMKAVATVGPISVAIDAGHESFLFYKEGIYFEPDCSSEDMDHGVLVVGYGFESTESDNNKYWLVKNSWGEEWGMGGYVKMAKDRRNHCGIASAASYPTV

Compound	IC50 (cathepsin K)	IC50 (cathepsin B)	IC50 (cathepsin L)	IC50 (cathepsin S)
Cc1cccc(COC(=O)NC2(c3ccnc(C#N)n3)CCCCC2)c1 [Example 13, 3-methylbenzyl (1-(2-cyanopyrimidin-4-yl)cyclohexyl)carbamate]	241 nM	> 10000 nM	5080 nM	> 10000 nM
CC(=O)N1CCN(c2ccc(-c3ccc(NC(=O)NC4(c5ccnc(C#N)n5)CCCCC4)cc3)cc2)CC1 [Example 155, 1-(4′(4-acetylpiperazin-1-yl)-[1,1′-biphenyl]-4-yl)-3-(1-(2-cyanopyrimidin-4-yl)cyclohexyl)urea]	2 nM	7340 nM	> 10000 nM	> 10000 nM
N#Cc1nccc(C2(NC(=O)Nc3cccc(Br)c3)CCCCC2)n1 [Example 109, 1-(3-bromophenyl)-3-(1-(2-cyanopyrimidin-4-yl)cyclohexyl)urea]	11 nM	> 10000 nM	1920 nM	7620 nM
N#Cc1nccc(C2(NC(=O)Nc3cc(C(F)(F)F)ccc3CO)CCCCC2)n1 [Example 108, 1-(1-(2-cyanopyrimidin-4-yl)cyclohexyl)-3-(2-(hydroxymethyl)-5-(trifluoromethyl)phenyl)urea]	6.9 nM	> 10000 nM	2270 nM	9850 nM
CC(C)N1CCN(c2ccc(-c3ccc(CNC(=O)NC4(c5ccnc(C#N)n5)CCCCC4)cc3)cc2)CC1 [Example 181, 1-(1-(2-cyanopyrimidin-4-yl)cyclohexyl)-3-((4′-(4-isopropylpiperazin-1-yl)-[1,1′-biphenyl]-4-yl)methyl)urea]	1.9 nM	> 10000 nM	> 10000 nM	> 10000 nM
N#Cc1nccc(C2(NC(=O)Nc3cc(C(F)(F)F)ccc3F)CCCCC2)n1 [Example 97, 1-(1-(2-cyanopyrimidin-4-yl)cyclohexyl)-3-(2-fluoro-5-(trifluoromethyl)phenyl)urea]	4.9 nM	> 10000 nM	> 10000 nM	> 10000 nM
N#Cc1nccc(C2(NC(=O)NCc3ccccc3)CCCC2)n1 [Example 42, 1-benzyl-3-(1-(2-cyanopyrimidin-4-yl)cyclopentyl)urea]	31.2 nM	> 10000 nM	7540 nM	> 10000 nM
Cn1cc(-c2ccc(NC(=O)NC3(c4ccnc(C#N)n4)CCCCC3)cc2)cn1 [Example 120, 1-(1-(2-cyanopyrimidin-4-yl)cyclohexyl)-3-(4-(1-methyl-1H-pyrazol-4-yl)phenyl)urea]	3.9 nM	9280 nM	> 10000 nM	> 10000 nM
N#Cc1nccc(C2(NC(=O)Nc3ccc(I)cc3)CCCCC2)n1 [Example 132, 1-(1-(2-cyanopyrimidin-4-yl)cyclohexyl)-3-(4-iodophenyl)urea]	15.9 nM	> 10000 nM	> 10000 nM	> 10000 nM
N#Cc1nccc(C2(NC(=O)Nc3cc(F)ccc3C(F)(F)F)CCCC2)n1 [Example 67, 1-(1-(2-cyanopyrimidin-4-yl)cyclopentyl)-3-(5-fluoro-2-(trifluoromethyl)phenyl)urea]	64.6 nM	> 10000 nM	> 10000 nM	> 10000 nM
N#Cc1nccc(C2(NC(=O)Nc3ccc(F)c(C(F)(F)F)c3)CCOCC2)n1 [Example 85, 1-(4-(2-cyanopyrimidin-4-yl)tetrahydro-2H-pyran-4-yl)-3-(4-fluoro-3-(trifluoromethyl)phenyl)urea]	28.2 nM	> 10000 nM	> 10000 nM	> 10000 nM
CS(=O)(=O)c1ccc(-c2ccc(NC(=O)NC3(c4ccnc(C#N)n4)CCCCC3)cc2C(F)(F)F)cc1 [Example 162, 1-(1-(2-cyanopyrimidin-4-yl)cyclohexyl)-3-(4′-(methylsulfonyl)-2-(trifluoromethyl)-[1,1′-biphenyl]-4-yl)urea]	8.3 nM	> 10000 nM	6520 nM	3950 nM
N#Cc1nccc(C2(NC(=O)Nc3ccc(-c4ccc(O)cc4)cc3)CCCCC2)n1 [Example 115, 1-(1-(2-cyanopyrimidin-4-yl)cyclohexyl)-3-(4′-hydroxy-[1,1′-biphenyl]-4-yl)urea]	9.2 nM	> 10000 nM	> 10000 nM	> 10000 nM
N#Cc1nccc(C2(NC(=O)Nc3ccc(-c4ccc(S(=O)(=O)C(F)(F)F)cc4)cc3)CCCCC2)n1 [Example 169, 1-(1-(2-cyanopyrimidin-4-yl)cyclohexyl)-3-(4′-((trifluoromethyl)sulfonyl)-[1,1′-biphenyl]-4-yl)urea]	74 nM	> 10000 nM	> 10000 nM	3600 nM
CC(=O)Nc1ccc(-c2ccc(NC(=O)NC3(c4ccnc(C#N)n4)CCCCC3)cc2)cc1 [Example 129, N-(4′-(3-(1-(2-cyanopyrimidin-4-yl)cyclohexyl)ureido)-[1,1′-biphenyl]-4-yl)acetamide]	4.9 nM	> 10000 nM	> 10000 nM	> 10000 nM
CC(C)(C)N1CCN(c2ccc(NC(=O)NC3(c4ccnc(C#N)n4)CCCCC3)cc2)CC1 [Example 143, 1-(4-(4-(tert-butyl)piperazin-1-yl)phenyl)-3-(1-(2-cyanopyrimidin-4-yl)cyclohexyl)urea]	2.3 nM	> 10000 nM	> 10000 nM	> 10000 nM
Cc1cccc(NC(=O)NC2(c3ccnc(C#N)n3)CCCC2)c1 [Example 38, 1-(1-(2-cyanopyrimidin-4-yl)cyclopentyl)-3-(meta-tolyl)urea]	69.6 nM	> 10000 nM	8060 nM	> 10000 nM
N#Cc1nccc(C2(NC(=O)Nc3ccc(-c4ccc(F)nc4)cc3)CCCCC2)n1 [Example 125, 1-(1-(2-cyanopyrimidin-4-yl)cyclohexyl)-3-(4-(6-fluoropyridin-3-yl)phenyl)urea]	15.2 nM	> 10000 nM	> 10000 nM	5420 nM
N#Cc1nccc(C2(NC(=O)Nc3ccccc3)CCCCC2)n1 [Example 86, 1-(1-(2-cyanopyrimidin-4-yl)cyclohexyl)-3-phenylurea]	38.9 nM	> 10000 nM	2460 nM	7110 nM
N#Cc1nccc(C2(NC(=O)OCc3cccc(C(F)(F)F)c3)CCCCC2)n1 [Example 14, 3-(trifluoromethyl)benzyl (1-(2-cyanopyrimidin-4-yl)cyclohexyl)carbamate]	3700 nM	> 10000 nM	9230 nM	> 10000 nM
COCCNC(=O)c1ccc(-c2ccc(NC(=O)NC3(c4ccnc(C#N)n4)CCCCC3)cc2)cc1 [Example 147, 4′-(3-(1-(2-cyanopyrimidin-4-yl)cyclohexyl)ureido)-N-(2-methoxyethyl)-[1,1′-biphenyl]-4-carboxamide]	5.2 nM	> 10000 nM	> 10000 nM	7930 nM
N#Cc1nccc(C2(NC(=O)Nc3ccc(-c4ccccc4F)cc3)CCCCC2)n1 [Example 124, 1-(1-(2-cyanopyrimidin-4-yl)cyclohexyl)-3-(2′-fluoro-[1,1′-biphenyl]-4-yl)urea]	6.9 nM	> 10000 nM	> 10000 nM	> 10000 nM
N#Cc1nccc(C2(NC(=O)Nc3ccc(-c4ccccc4)cc3)CCCCC2)n1 [Example 113, 1-([1,1′-biphenyl]-4-yl)-3-(1-(2-cyanopyrimidin-4-yl)cyclohexyl)urea]	12.2 nM	> 10000 nM	> 10000 nM	> 10000 nM
N#Cc1nccc(C2(NC(=O)Nc3ccc4c(c3)OCO4)CCCC2)n1 [Example 78, 1-(benzo[d][1,3]dioxol-5-yl)-3-(1-(2-cyanopyrimidin-4-yl)cyclopentyl)urea]	51.8 nM	> 10000 nM	> 10000 nM	> 10000 nM
N#Cc1nccc(C2(NC(=O)Nc3ccc(N4CCNCC4)cc3)CCCCC2)n1 [Example 140, 1-(1-(2-cyanopyrimidin-4-yl)cyclohexyl)-3-(4-(piperazin-1-yl)phenyl)urea]	21.5 nM	> 10000 nM	6570 nM	> 10000 nM
CS(=O)(=O)c1ccc(-c2ccc(NC(=O)NC3(c4ccnc(C#N)n4)CCCCC3)cc2)cc1C(F)(F)F [Example 171, 1-(1-(2-cyanopyrimidin-4-yl)cyclohexyl)-3-(4′-(methylsulfonyl)-3′-(trifluoromethyl)-[1,1′-biphenyl]-4-yl)urea]	24 nM	> 10000 nM	> 10000 nM	2190 nM

— patent US11299478B2, “2-cyanopyrimidin-4-yl carbamate or urea derivative or salt thereof, and pharmaceutical composition including same” (HANLIM PHARMACEUTICAL CO., LTD., priority 2018, dated 2022)
